Assay results reported in publication PMC7205388, “Per-6-Thiolated Cyclodextrins: A Novel Type of Permeation Enhancing Excipients for BCS Class IV Drugs” (ACS Applied Materials & Interfaces, 2020).

Columns and labels:
Caco-2 cell monolayer = assay: TEER measurement on the Caco-2 cell monolayer; assay type: cell-based, human; details: for decrease in TEER: Caco-2 monolayer, during 3 h permeation experiment; for TEER regained in comparison to initial values: after cell washing and incubating with MEM
Description: Permeation studies on the Caco-2 cell monolayer were executed as described previously.[23] Caco-2 cells at a density of 0.6 × 10^5 cells/cm^2 were seeded onto 24-well plates with ThinCert inserts (pore-size: 400 μm, Greiner Bio-One, Kremsmünster, Austria). Cells were cultured in MEM containing 20% FCS in an atmosphere of 5% CO2 and 95% humidity at 37 °C. The medium was renewed every other day for 21 days. For permeation studies, only cell monolayers showing a transepithelial electrical resistance (TEER) in the range of 300–500 Ω cm^2 were applied, which were determined with an EVOM instrument. TEER was also determined at time point 3 h representing the end of the permeation experiment and after 24 and 48 h to confirm monolayer integrity. Before the start of the experiment, cells were washed with PBS. Thereafter, 500 μL of MEM without FCS was transferred to the donor chamber and 1000 μL of the same medium was transferred to an accepter chamber.

[1] = Phase-solubility study with FUR (apparent stability constant KC); assay type: physicochemical; details: aqueous solution, room temperature, 1:1 complex
Description: The suspension was homogenized at room temperature using a thermomixer (Thermomixer C, Eppendorf, Austria) at 750 rpm until equilibrium in solubility was reached (3–4 days).

[2] = Quantification of −SH content with Ellman's reagent; assay type: physicochemical
Description: Per-6-thiolated α-CD was assessed for the amount of thiol by using Ellman’s reagent.[16] The calibration curve was established using L-cysteine.

[3] = Resazurin cytotoxicity assay on Caco-2 cells; assay type: cell-based, human; details: human, read-out: cell viability
Description: (§1) The impact of per-6-thiolated α-CD on viability of human colorectal carcinoma (Caco-2) cells was evaluated by resazurin assay to confirm the safety of the newly synthesized oligomer. For this purpose, Caco-2 cells were obtained from the European Collection of Cell Cultures (Salisbury, UK). Caco-2 cells at a density of 2.5 × 10^4 cells/well were suspended in 500 μL of MEM and seeded to a 24-well plate. The plate was incubated at an atmosphere of CO2 (5%) and relative humidity (95%) at 37 °C for 2 weeks. During this culture period, the medium was replaced on alternative days.
(§2) Toxicity assay was performed to investigate the cytotoxic potential of per-6-thiolated α-CD by quantifying resorufin formed by the reduction of resazurin. On the day of the experiment, cells of around 80% confluency were washed two times with preheated 10 mM PBS pH 7.4. The oligomer solutions (500 μL) of per-6-thiolated and unmodified α-CD (0.5% m/v) in white MEM, 4% (v/v) Triton X-100 acting as a negative control and white MEM acting as a positive control were transferred to the cell culture wells.
(§3) After 3 and 24 h, test samples were withdrawn, and the cells were washed two times with preheated PBS. In the following, 500 μL of resazurin (2.2 μM) solution was added, and cells were further incubated for 3 h. Aliquots (100 μL) were inserted to a 96-well plate, and the fluorescence was analyzed at emission and excitation wavelength of 590 and 540 nm utilizing a microplate reader (M-200 spectrometer; Tecan infinite, Austria). Cell viability of cells was measured using eq 1 [drawing 1] 1

[4] = test system: human colorectal carcinoma (Caco-2) cells; assay: Resazurin cytotoxicity assay on Caco-2 cells; assay type: cell-based; details: 0.5% (m/v), within 24 h
Description: as §1, §2, §3

[5] = pKa of −SH groups by photometric method; assay type: physicochemical; details: 0.001 M HCl containing 0.1 M NaCl, titrated with 0.01% NaOH; absorbance at 242 nm, 0.1% m/v
Description: As the stability of sulfhydryl groups depends on thiolate anions concentration, the pKa value of −SH groups on per-6-thiolated α-CD was determined via an established photometric method with some modifications.[17] Briefly, ionic strength was stabilized by dissolving per-6-thiolated α-CD (0.1% m/v) in 0.001 M HCl containing 0.1 M NaCl. Increasing volumes of 0.01% NaOH were added to per-6-thiolated CD solutions that were continuously measured regarding pH and absorbance at 242 nm. The pKa was determined by plotting pH versus −log[(Amax – Ai)/Ai].

[6] = Stability of −SH groups toward oxidation at different pH; assay type: physicochemical
Description: Furthermore, the stability of the thiolated CD was measured under different pH. In short, per-6-thiolated α-CD (0.25% m/v) was hydrated in water, and pH was adjusted to 4 and 5 with acetate buffer (50 mM), to 6 with phosphate buffer (50 mM), and to 7.2 with Tris buffer (50 mM). Test samples were kept under continuous stirring at 37 °C. After specific time intervals, aliquots of 500 μL were taken. Any further reaction was quenched by adding 50 μL of 1 M HCl to each aliquot.[18] Sulfhydryl groups were quantified using Ellman’s reagent.

| apparent stability constant (KC) with FUR [1] [M^–1] | amount of −S–S– groups on the CD backbone [2] [µmol/g] | amount of −SH groups on the CD backbone ([2]; Ellman's reagent) [µmol/g] | pKa [5] | −SH groups oxidized ([6]; after 3 h at pH 5, 37 °C) [%] | stability of −SH groups ([6]; pH 4, 37 °C, 0.25% m/v) | stability of −SH groups ([6]; pH ≤ 4) | Compound | decrease in TEER (Caco-2 cell monolayer) | viability at 3 h, 0.5 % (m/v) ([3]; after 3 h) [%] | viability at 24 h, 0.5 % (m/v) ([3]; after 24 h) [%] | cytotoxicity [4] | TEER regained in comparison to initial values (Caco-2 cell monolayer; after 24 h) [%] | TEER regained in comparison to initial values (Caco-2 cell monolayer; after 48 h) [%] |
| --- | --- | --- | --- | --- | --- | --- | --- | --- | --- | --- | --- | --- | --- |
| 1050.7 | – | – | – | – | – | – | OC[C@H]1O[C@@H]2O[C@H]3[C@H](O)[C@@H](O)[C@@H](O[C@H]4[C@H](O)[C@@H](O)[C@@H](O[C@H]5[C@H](O)[C@@H](O)[C@@H](O[C@H]6[C@H](O)[C@@H](O)[C@@H](O[C@H]7[C@H](O)[C@@H](O)[C@@H](O[C@H]1[C@H](O)[C@H]2O)O[C@@H]7CO)O[C@@H]6CO)O[C@@H]5CO)O[C@@H]4CO)O[C@@H]3CO [α-CD, α-cyclodextrin, reference compound] | ~15% | – | – | – | – | – |
| 1090.9 | 786 ± 139 | 4244 ± 402 | 8.1 | 15 | stable | stable | O[C@@H]1[C@@H](O)[C@H]2O[C@H]3[C@H](O)[C@@H](O)[C@@H](O[C@H]4[C@H](O)[C@@H](O)[C@@H](O[C@H]5[C@H](O)[C@@H](O)[C@@H](O[C@H]6[C@H](O)[C@@H](O)[C@@H](O[C@H]7[C@H](O)[C@@H](O)[C@@H](O[C@@H]1[C@@H](CS)O2)O[C@@H]7CS)O[C@@H]6CS)O[C@@H]5CS)O[C@@H]4CS)O[C@@H]3CS [per-6-thiolated α-CD, per-6-thiolated α-cyclodextrin] | up to 28% | > 88 | > 88 | not cytotoxic | 82 | 90 |
